Data reported in patent publication US11098055B2, “Ester ACC inhibitors and uses thereof” (Gilead Apollo, LLC, priority 2015, dated 2021).
Values after ≈ are worked out from the molar mass of the structure shown. Read-outs that look alike come from different tables or passages of the source.

Legend:
Assay in all cases: Growth inhibition assay of fungal pathogens
Assay type in all cases: cell-based
[1] = test system: Phytophthora capsici (Pc); details: 48 h, read-out: Concentration at 90% Inhibition Pc
How it was run: (§1)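 Spores from sub-cultured plates were diluted in 17% V8 liquid medium and exposed to compound at final 50, 10 and 2 ppm or 2, 0.4 and 0.08 ppm with 2% DMSO. OD600 and visual ratings were taken at 24 and 48 h, blank-subtracted. Percent growth inhibition came from 48 h readings against the 2% DMSO control.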

[2] = test system: Collectotrichum graminicola (Cg); details: 48 h, read-out: Concentration at 90% Inhibition Cg
How it was run: as §1

[3] = test system: Fusarium moniliforme (Fm); details: Fusarium verticillioides, 48 h, read-out: Concentration at 90% Inhibition Fm
How it was run: as §1

[4] = test system: Fusarium virguliforme (Fv); details: 48 h, read-out: Concentration at 90% Inhibition Fv
How it was run: as §1

Septoria tritici (St) = details: Zymoseptoria tritici, 48 h, read-out: Concentration at 90% Inhibition St
How it was run: as §1

Botrtyis cinerea (Bc) = details: 48 h, read-out: Concentration at 90% Inhibition Bc
How it was run: as §1

Diplodia maydis (Dm) = details: Stenocarpella maydis, 48 h, read-out: Concentration at 90% Inhibition Dm
How it was run: as §1

Rhizoctonia solani (Rs) = details: 48 h, read-out: Concentration at 90% Inhibition Rs
How it was run: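 Percent growth inhibition is scored at 48 h, by OD600 (blank-subtracted) and visual rating against the 2% DMSO control. Compounds were tested at final 50, 10, 2 ppm or 2, 0.4, 0.08 ppm on pathogen spores diluted in 17% V8 medium; mycelial plugs in ¼ PDB were used for Rhizoctonia.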

SMILES	IC90 ([1]; Table 4a) [µg/mL]	IC90 ([1]; Table 4b) [µg/mL]	IC90 ([2]; Table 4a) [µg/mL]	IC90 ([2]; Table 4b) [µg/mL]	IC90 ([3]; Table 4a) [µg/mL]	IC90 ([3]; Table 4b) [µg/mL]	IC90 ([4]; Table 4a) [µg/mL]	IC90 ([4]; Table 4b) [µg/mL]	IC90 (Septoria tritici (St); Table 4a) [µg/mL]	IC90 (Septoria tritici (St); Table 4b) [µg/mL]	IC90 (Botrtyis cinerea (Bc); Table 4a) [µg/mL]	IC90 (Botrtyis cinerea (Bc); Table 4b) [µg/mL]	IC90 (Diplodia maydis (Dm); Table 4a) [µg/mL]	IC90 (Diplodia maydis (Dm); Table 4b) [µg/mL]	IC90 (Rhizoctonia solani (Rs); Table 4a) [µg/mL]	IC90 (Rhizoctonia solani (Rs); Table 4b) [µg/mL]
CCOC(=O)c1sc2c(c1C)c(=O)n(C(C)(C)C(=O)NC(C)C)c(=O)n2C[C@H](OCCOC)c1cc(F)ccc1OC [Compound I-11, (R)-ethyl 1-(2-(5-fluoro-2-methoxyphenyl)-2-(2-methoxy-ethoxy)ethyl)-3-(1-(isopropylamino)-2-methyl-1-oxopropan-2-yl)-5-methyl-2,4-dioxo-1,2,3,4-tetrahydrothieno[2,3-d]pyrimidine-6-carboxylate]	≥ 50	≥ 50	2 (≈ 3.29 µM)	2 (≈ 3.29 µM)	0.08 (≈ 0.132 µM)	0.08 (≈ 0.132 µM)	0.4 (≈ 0.658 µM)	0.4 (≈ 0.658 µM)	≥ 50	≥ 50	2 (≈ 3.29 µM)	2 (≈ 3.29 µM)	2 (≈ 3.29 µM)	2 (≈ 3.29 µM)	≥ 50	10 (≈ 16.5 µM)
CCOC(=O)c1sc2c(c1C)c(=O)n([C@@H](C)C(=O)N(C)C(C)C)c(=O)n2C[C@H](OCCC#N)c1cc(F)ccc1OC [Compound I-28, ethyl 1-((R)-2-(2-cyanoethoxy)-2-(5-fluoro-2-methoxy-phenyl)-ethyl)-3-((S)-1-(isopropyl(methyl)amino)-1-oxopropan-2-yl)-5-methyl-2,4-dioxo-1,2,3,4-tetrahydrothieno[2,3-d]pyrimidine-6-carboxylate]		≥ 50		10 (≈ 16.6 µM)		0.4 (≈ 0.664 µM)		0.4 (≈ 0.664 µM)		10 (≈ 16.6 µM)		2 (≈ 3.32 µM)		10 (≈ 16.6 µM)		0.08 (≈ 0.133 µM)
CCOC(=O)c1sc2c(c1C)c(=O)n(C(C)(C)C(=O)NC(C)C)c(=O)n2C[C@H](OCCC#N)c1ccccc1OC [Compound I-31, ethyl (R)-1-(2-(2-cyanoethoxy)-2-(2-methoxyphenyl)ethyl)-3-(1-(isopropylamino)-2-methyl-1-oxopropan-2-yl)-5-methyl-2,4-dioxo-1,2,3,4-tetrahydrothieno[2,3-d]pyrimidine-6-carboxylate]		2 (≈ 3.42 µM)		0.4 (≈ 0.684 µM)		0.08 (≈ 0.137 µM)		0.4 (≈ 0.684 µM)		10 (≈ 17.1 µM)		0.4 (≈ 0.684 µM)		0.4 (≈ 0.684 µM)		2 (≈ 3.42 µM)
CCOC(=O)c1sc2c(c1C)c(=O)n(C(C)(C)C(=O)NC(C)C)c(=O)n2C[C@H](OCCS(C)(=O)=O)c1cc(F)ccc1OC [Compound I-36, ethyl (R)-1-(2-(5-fluoro-2-methoxyphenyl)-2-(2-(methylsulfonyl)ethoxy)ethyl)-3-(1-(isopropylamino)-2-methyl-1-oxopropan-2-yl)-5-methyl-2,4-dioxo-1,2,3,4-tetrahydrothieno[2,3-d]pyrimidine-6-carboxylate]		≥ 50		0.4 (≈ 0.61 µM)		0.4 (≈ 0.61 µM)		2 (≈ 3.05 µM)		≥ 50		2 (≈ 3.05 µM)		2 (≈ 3.05 µM)		0.4 (≈ 0.61 µM)
CCOC(=O)c1sc2c(c1C)c(=O)n([C@@H](C)C(=O)NC(C)C)c(=O)n2C[C@H](O)c1cc(F)ccc1OC [Compound I-44, ethyl 1-((R)-2-(5-fluoro-2-methoxyphenyl)-2-hydroxyethyl)-3-((S)-1-(isopropylamino)-1-oxopropan-2-yl)-5-methyl-2,4-dioxo-1,2,3,4-tetrahydrothieno[2,3-d]pyrimidine-6-carboxylate]		≥ 50		≥ 50		≥ 50		10 (≈ 18.7 µM)		≥ 50		10 (≈ 18.7 µM)		≥ 50		≥ 50
CCOC(=O)c1sc2c(c1C)c(=O)n(C(C)(C)C(=O)NC(C)C)c(=O)n2C[C@H](OCC#N)c1cc(F)ccc1OC [Compound I-33, ethyl (R)-1-(2-(cyanomethoxy)-2-(5-fluoro-2-methoxy-phenyl)ethyl)-3-(1-(isopropylamino)-2-methyl-1-oxopropan-2-yl)-5-methyl-2,4-dioxo-1,2,3,4-tetrahydrothieno[2,3-d]pyrimidine-6-carboxylate]		≥ 50		2 (≈ 3.4 µM)		0.08 (≈ 0.136 µM)		0.4 (≈ 0.68 µM)		10 (≈ 17 µM)		0.4 (≈ 0.68 µM)		2 (≈ 3.4 µM)		0.4 (≈ 0.68 µM)
CCOC(=O)c1sc2c(c1C)c(=O)n(C(C)(C)C(=O)NC(C)C)c(=O)n2C[C@H](OC[C@H](C)C#N)c1cc(F)ccc1OC [Compound I-34, ethyl 1-((R)-2-((R)-2-cyanopropoxy)-2-(5-fluoro-2-methoxyphenyl)ethyl)-3-(1-(isopropylamino)-2-methyl-1-oxopropan-2-yl)-5-methyl-2,4-dioxo-1,2,3,4-tetrahydrothieno[2,3-d]pyrimidine-6-carboxylate]		10 (≈ 16.2 µM)		0.08 (≈ 0.13 µM)		0.08 (≈ 0.13 µM)		0.4 (≈ 0.649 µM)		2 (≈ 3.24 µM)		0.4 (≈ 0.649 µM)		0.4 (≈ 0.649 µM)		0.08 (≈ 0.13 µM)
CCOC(=O)c1sc2c(c1C)c(=O)n([C@@H](C)C(=O)NC(C)C)c(=O)n2C[C@H](OCCC#N)c1cc(F)ccc1OC [Compound I-20, ethyl 1-((R)-2-(2-cyanoethoxy)-2-(5-fluoro-2-methoxy-phenyl)ethyl)-3-((S)-1-(isopropylamino)-1-oxopropan-2-yl)-5-methyl-2,4-dioxo-1,2,3,4-tetrahydrothieno[2,3-d]pyrimidine-6-carboxylate]		≥ 50		10 (≈ 17 µM)		0.4 (≈ 0.68 µM)		10 (≈ 17 µM)		≥ 50		2 (≈ 3.4 µM)		10 (≈ 17 µM)		≥ 50
CCOC(=O)c1sc2c(c1C)c(=O)n([C@H](C)C(=O)N(C)C(C)C)c(=O)n2C[C@H](OCCC#N)c1cc(F)ccc1OC [Compound I-27, ethyl 1-((R)-2-(2-cyanoethoxy)-2-(5-fluoro-2-methoxy-phenyl)ethyl)-3-((R)-1-(isopropyl(methyl)amino)-1-oxopropan-2-yl)-5-methyl-2,4-dioxo-1,2,3,4-tetrahydrothieno[2,3-d]pyrimidine-6-carboxylate]		≥ 50		2 (≈ 3.32 µM)		0.08 (≈ 0.133 µM)		0.4 (≈ 0.664 µM)		≥ 50		2 (≈ 3.32 µM)		2 (≈ 3.32 µM)		2 (≈ 3.32 µM)
CCOC(=O)c1sc2c(c1C)c(=O)n(C(C)(C)C(=O)NC(C)C)c(=O)n2C[C@H](OCCC#N)c1cc(F)ccc1OC [Compound I-15, (R)-ethyl 1-(2-(2-cyanoethoxy)-2-(5-fluoro-2-methoxy-phenyl)ethyl)-3-(1-(isopropylamino)-2-methyl-1-oxopropan-2-yl)-5-methyl-2,4-dioxo-1,2,3,4-tetrahydrothieno[2,3-d]pyrimidine-6-carboxylate]	≥ 50	10 (≈ 16.6 µM)	0.08 (≈ 0.133 µM)	0.08 (≈ 0.133 µM)	0.08 (≈ 0.133 µM)	0.08 (≈ 0.133 µM)	0.4 (≈ 0.664 µM)	0.4 (≈ 0.664 µM)	≥ 50	10 (≈ 16.6 µM)	0.4 (≈ 0.664 µM)	0.4 (≈ 0.664 µM)	0.08 (≈ 0.133 µM)	0.08 (≈ 0.133 µM)	0.08 (≈ 0.133 µM)	0.08 (≈ 0.133 µM)
CCOC(=O)c1sc2c(c1C)c(=O)n(C(C)(C)C(=O)N1CCCC1)c(=O)n2C[C@H](OC(C)C)c1ccccc1OC [Compound I-7, (R)-ethyl 1-(2-isopropoxy-2-(2-methoxyphenyl)ethyl)-5-methyl-3-(2-methyl-1-oxo-1-(pyrrolidin-1-yl)propan-2-yl)-2,4-dioxo-1,2,3,4-tetrahydrothieno[2,3-d]pyrimidine-6-carboxylate]	≥ 50	≥ 50	0.4 (≈ 0.683 µM)	0.4 (≈ 0.683 µM)	0.08 (≈ 0.137 µM)	0.08 (≈ 0.137 µM)	0.4 (≈ 0.683 µM)	0.4 (≈ 0.683 µM)	10 (≈ 17.1 µM)	2 (≈ 3.41 µM)	0.4 (≈ 0.683 µM)	0.4 (≈ 0.683 µM)	0.4 (≈ 0.683 µM)	0.4 (≈ 0.683 µM)	0.08 (≈ 0.137 µM)	0.08 (≈ 0.137 µM)
CCNC(=O)C(C)(C)n1c(=O)c2c(C)c(C(=O)OCC)sc2n(C[C@H](OCCC#N)c2cc(F)ccc2OC)c1=O [Compound I-29, (R)-ethyl 1-(2-(2-cyanoethoxy)-2-(5-fluoro-2-methoxy-phenyl)ethyl)-3-(1-(ethylamino)-2-methyl-1-oxopropan-2-yl)-5-methyl-2,4-dioxo-1,2,3,4-tetrahydrothieno[2,3-d]pyrimidine-6-carboxylate]		≥ 50		0.4 (≈ 0.68 µM)		0.08 (≈ 0.136 µM)		2 (≈ 3.4 µM)		10 (≈ 17 µM)		2 (≈ 3.4 µM)		0.4 (≈ 0.68 µM)		0.08 (≈ 0.136 µM)
CCOC(=O)c1sc2c(c1C)c(=O)n(C(C)(C)C(=O)NC(C)C)c(=O)n2C[C@H](OCC(C)(C)C#N)c1ccccc1OC [Compound I-38, ethyl (R)-1-(2-(2-cyano-2-methylpropoxy)-2-(2-methoxyphenyl)ethyl)-3-(1-(isopropylamino)-2-methyl-1-oxopropan-2-yl)-5-methyl-2,4-dioxo-1,2,3,4-tetrahydrothieno[2,3-d]pyrimidine-6-carboxylate]		≥ 50		2 (≈ 3.26 µM)		0.08 (≈ 0.131 µM)		2 (≈ 3.26 µM)		≥ 50		0.4 (≈ 0.653 µM)		2 (≈ 3.26 µM)		2 (≈ 3.26 µM)
